Data from US10064841B1, “Isoandrographolide-19-propionate for treatment of non-alcoholic fatty liver disease (NAFLD)” (KING SAUD UNIVERSITY, priority 2018, dated 2018).
pEC50: −log10 of the molar value.

Tests used:
Type in all cases: cell-based
[1] = tested on: palmitate-oleate induced steatotic HepG2 cells; test: ALT leakage of palmitate-oleate induced HepG2 cells; details: 24 h
Procedure: (§1) Induction of steatosis was done in accordance with the protocol of Hetherington and coworkers, Cell Physiol Biochem. 39:1648-62 (2016), with slight modification. HepG2 cells were loaded in 24-well cell culture plates at a density of 4×10^4 cells/well and kept overnight. On the next day, the media were replaced with fresh media containing PO-BSA at 1 mM concentration, with or without test materials (12.5-50 μM) dissolved in DMSO. The cells supplemented with media containing only BSA (instead of PO-BSA) and treated with DMSO (FIG. 2A) served as the normal control. The cells supplemented with media containing PO-BSA and treated with DMSO (FIG. 2B) served as negative control. Fenofibrate (12.5-50 μM) (FIG. 2C) was used as the positive control. After 24 h of treatment, the cells were taken for the analyses.
(§2) After treatment, the cells were harvested and lysed using 1×PBS under sonication at 3× for five second intervals at 40V setting over ice. The cell lysates were taken and estimated for TG and protein using commercial spectrophotometric kits. TG levels were normalized to the protein content, and results were expressed as mg TG/g protein. The MDA levels in the cell lysate were estimated using a commercial spectrophotometric kit. The levels of ALT were measured in the spent media, and cell lysate and percent ALT leakage was calculated using the following formula: […]

[2] = tested on: palmitate-oleate induced steatotic HepG2 cells; test: Triglyceride accumulation in palmitate-oleate induced HepG2 cells; details: 50 μM, 24 h
Procedure: as §1, §2

[3] = tested on: palmitate-oleate induced steatotic HepG2 cells; test: Reduction of Oil Red O stain in palmitate-oleate induced steatotic HepG2 cells; details: Homo sapiens, PO-BSA 1 mM, 24 h, test materials 12.5-50 μM
Procedure: as §1
After treatment, the amount of lipids accumulated into the cells was measured using ORO staining. Briefly, 24 h after treatment, the spent media was removed and the cells were fixed by incubating them with 10% formalin in PBS for 1 h at room temperature. Each well was washed with 60% aqueous isopropanol and was allowed to dry. […] Cell morphology was assessed and photographed (400×) using an inverted microscope. The ORO stain was eluted with 100% isopropanol and measured at 500 nm. […] The results were expressed as the percentage of absorbance of the sample to the absorbance of the control blank.

HepG2 cells = test: MTT toxicity assay; details: 24 h; for GI50: Homo sapiens, test materials 100-500 μM, linear regression
Procedure: The cytotoxic effect was analyzed by using the MTT assay as described by Mosmann, J. Immunol Methods. 65:55-63 (1983), with minor modification. HepG2 cells were seeded at 5×10^3 cells/well into a 96-well plate and incubated for 24 h. Spent media was then replaced with fresh media containing test materials (100-500 μM) dissolved in DMSO. Vehicle control cells were treated only with DMSO. The plates were incubated in a CO2 incubator for 24 h. The spent media was then replaced with sterile MTT solution (5 mg/mL in PBS at pH—7.4; 100 μL/well) and incubated for another 3 h. The unreacted MTT dye was removed, and the formazan crystals were dissolved with DMSO (200 μL/well) and kept in dark for 30 min. The resulting purple color was quantified by measuring absorbance at 570 nm. The assays were performed thrice and the results were expressed in percentage in comparison to vehicle-treated cells. The following formula was used for calculation.
[formula] GI50 values were calculated using linear regression analysis.

[4] = tested on: palmitate-oleate induced steatotic HepG2 cells; test: Lipoperoxide formation (MDA/TBARS) in palmitate-oleate induced HepG2 cells; details: 50 μM, 24 h
Procedure: as §1, §2

In the case of `CCC(=O)OCC1(C)[C@H](O)CC[C@@]2(C)C3C[C@@H](C4=CCOC4=O)O[C@]3(C)CC[C@H]12` (some centres unmarked) [IAN-19P, isoandrographolide-19-propionate], the ALT leakage [1] was “lowered ALT leakage”, the triglyceride level [2] was “come to normal” and the pEC50 [3] was 5.05. For the same molecule, the “toxicity compared with AN (MTT assay)” value (HepG2 cells) was “comparatively lower toxicity than AN”, the GI50 (HepG2 cells) was 27000 µM and the lipoperoxide formation [4] was “significantly lowered”.
`C=C1CC[C@@H]2[C@](C)(CO)[C@H](O)CC[C@@]2(C)[C@@H]1C/C=C1/C(=O)OC[C@H]1O` [AN, Andrographolide] was tested, and the pEC50 [3] was 4.36 and the GI50 (HepG2 cells) was 254 µM.
